For the experiment, the system named is Hsp47 gene expression, primary human hepatic stellate cells. Kind of experiment: Hsp47 gene expression in TGFβ1-stimulated primary human hepatic stellate cells. The class given is cell-based. The conditions noted are these: for Hsp47 Fold Expression Relative to Control, Mean: first donor, normalized to Gapdh, single amino acid; for Hsp47 gene expression: primary human hepatic stellate cells, three healthy donors, TGFβ1 3 ng/mL 24 h, summary in words. The procedure: Primary human hepatic stellate cells were obtained from Samsara Sciences based on the following criteria for selecting donors: adult age (between 18 and 50 years), normal BMI (>18.5 and <25), and absence of confounding liver disease. Cells grown in Complete HSC Medium to ˜80% confluence in T75 or T150 flasks below passage 10 were seeded into sterile, collagen I coated, 96-well optical plastic microplates (ThermoScientific, 152036) at 6000 cells per well (1250 cells per cm2) and incubated overnight at 37° C., 5% CO2 in a humidified incubator in DMEM with 2% Fetal Bovine Serum and 1% Antibiotic-Antimycotic.
After the overnight incubation, plates were removed from the incubator and the medium was gently pipetted off and washed twice with 150 μL per well DPBS. The DPBS was removed and the pretreatment medium (±single amino acid dropout, 1×HMDB DMEM+1% Antibiotic-Antimycotic, 10 mM HEPES, ±supplemental amino acid dose; see experiment for medium composition) was applied to the cells at 150 μL per well. Plates were returned to the incubator for 10.5 hours.
After 10.5 hour pretreatment, the medium was removed from the cells, and the same pretreatment medium, now supplemented with 3 ng/mL TGFβ1, was applied. Each plate contained 3 ng/mL TGFβ1 in 1× human plasma amino acid (HMDB or PAA) concentration medium, 0 ng/mL in 1×HMDB, and 3 ng/mL TGFβ1+20 μM Silybin in 1×HMDB to serve as controls. Plates were then incubated for 24 hours at 37° C., 5% CO2.
After 24 hour stimulus, supernatant was removed and frozen at −80° C. in two separate aliquots. The cells were then washed with 125 μL per well Buffer FCW (FastLane Cell Multiplex NR Kit, Qiagen, 216713). The wash buffer was immediately removed and 50 μL of Cell Processing Mix (containing genomic DNA Wipeout buffer) was applied to lyse cells, incubating for 10 minutes at room temperature. RNA lysate was then transferred to 96-well qPCR plates, sealed, and gDNA was digested on thermal cycler at 75° C. for 5 minutes. RNA lysate was frozen at −80° C.
Each 20 μL one-step RT-qPCR reaction contained 4 μL of RNA lysate. Gene expression of Hsp47, and Gapdh were multiplexed using the HEX, and FAM fluorescent channels, respectively, with commercially available primer-probe mixes (the Human Hsp47 Primer-Probe Set, HEX; and the Human Gapdh Primer-Probe Set, FAM from IDT). Gene expression was evaluated using the ΔΔCq method within each single amino acid dropout and supplementation by normalizing to its own 1×HMDB concentration.

The record followed here is patent publication US20210275480A1, “COMPOSITIONS AND METHODS FOR THE REDUCTION OR TREATMENT OF FIBROSIS” (AXCELLA HEALTH INC., priority 2018, published 2021).

On to `CC[C@H](C)[C@H](N)C(=O)O` [ILE, isoleucine], for which the Hsp47 gene expression entry is listed as “did not significantly change”. Moreover, under “Table 38, second donor, 66 μM (baseline 1×HMDB concentration)”, the “Hsp47 Fold Expression Relative to Control, normalized to Gapdh (Mean)” value is 1.00 fold. Moreover, the “Hsp47 Fold Expression Relative to Control, normalized to Gapdh (Mean)” value (Table 38, second donor, 1328 μM) amounted to 0.90 fold. Further, the “Hsp47 Fold Expression Relative to Control, normalized to Gapdh (Mean)” value (Table 38, second donor, 3320 μM) came to 0.92 fold. Moreover, for the setting “Table 38, second donor, 6639 μM”, the “Hsp47 Fold Expression Relative to Control, normalized to Gapdh (Mean)” value was found to be 0.94 fold. Also, the “Hsp47 Fold Expression Relative to Control, normalized to Gapdh (Mean)” value (Table 40, second donor (so in the source), 66 μM (baseline 1×HMDB concentration)) worked out at 1.00 fold. Where the note is “Table 40, second donor (so in the source), 1328 μM”, the “Hsp47 Fold Expression Relative to Control, normalized to Gapdh (Mean)” value was found to be 1.00 fold. For the same molecule, the “Hsp47 Fold Expression Relative to Control, normalized to Gapdh (Mean)” value (Table 40, second donor (so in the source), 3320 μM) is on record as 0.98 fold. In addition, the “Hsp47 Fold Expression Relative to Control, normalized to Gapdh (Mean)” value (Table 40, second donor (so in the source), 6639 μM) stood at 1.06 fold. Moreover, for the setting “66 μM (1X reference)”, the “Hsp47 Fold Expression Relative to Control, Mean” value is listed as 1.00 fold. Under “1328 μM”, the “Hsp47 Fold Expression Relative to Control, Mean” value came to 1.07 fold. Further, under “3320 μM”, the “Hsp47 Fold Expression Relative to Control, Mean” value came to 1.22 fold. The “Hsp47 Fold Expression Relative to Control, Mean” value (6639 μM) was found to be 0.99 fold.
With `CC(C)[C@H](N)C(=O)O` [VAL, valine], the Hsp47 gene expression result is recorded as “did not significantly change”. For the setting “Table 38, second donor, 234 μM (baseline 1×HMDB concentration)”, the “Hsp47 Fold Expression Relative to Control, normalized to Gapdh (Mean)” value amounted to 1.00 fold. Moreover, the “Hsp47 Fold Expression Relative to Control, normalized to Gapdh (Mean)” value (Table 38, second donor, 4684 μM) is reported as 1.02 fold. The “Hsp47 Fold Expression Relative to Control, normalized to Gapdh (Mean)” value (Table 38, second donor, 11710 μM) came to 0.99 fold. Further, the “Hsp47 Fold Expression Relative to Control, normalized to Gapdh (Mean)” value (Table 38, second donor, 23420 μM) amounted to 0.89 fold. The “Hsp47 Fold Expression Relative to Control, normalized to Gapdh (Mean)” value (Table 40, second donor (so in the source), 234 μM (baseline 1×HMDB concentration)) is given as 1.00 fold. The “Hsp47 Fold Expression Relative to Control, normalized to Gapdh (Mean)” value (Table 40, second donor (so in the source), 4684 μM) was determined as 0.97 fold. Moreover, under “Table 40, second donor (so in the source), 11710 μM”, the “Hsp47 Fold Expression Relative to Control, normalized to Gapdh (Mean)” value stood at 0.95 fold. Moreover, for the setting “Table 40, second donor (so in the source), 23420 μM”, the “Hsp47 Fold Expression Relative to Control, normalized to Gapdh (Mean)” value is given as 0.95 fold. Besides, the “Hsp47 Fold Expression Relative to Control, Mean” value (234 μM (1X reference)) came out at 1.00 fold. In addition, where the note is “4684 μM”, the “Hsp47 Fold Expression Relative to Control, Mean” value was determined as 1.05 fold. Besides, the “Hsp47 Fold Expression Relative to Control, Mean” value (11710 μM) worked out at 1.05 fold. Also, the “Hsp47 Fold Expression Relative to Control, Mean” value (23420 μM) amounted to 1.00 fold.
